Measurements published in US7566737B2 (Genfit, priority 2002, dated 2009).

Columns and labels:
[1] = test system: LDL; assay: Protection against LDL oxidation by copper (conjugated diene formation); assay type: biochemical; conditions: for lag phase of conjugated diene formation / rate of conjugated diene formation: 10^−4M; for antioxidant properties on LDL oxidation by copper (in words): FIGS. 1-1 to 1-14
Method: LDL oxidation is an important alteration and plays a predominant role in the establishment and development of atherosclerosis (Jurgens G et al., 1987). […] Unless otherwise indicated, the reagents were from Sigma (St Quentin, France). LDL were prepared according to the method described by (Havel R J et al., 1955). The solutions of test compounds were prepared at 10^−2 M concentration in bicarbonate buffer (pH 9) and diluted in PBS to obtain final concentrations ranging from 0.1 to 100 μM for a total ethanol concentration of […]. Prior to oxidation, EDTA was removed from the LDL preparation by dialysis. Oxidation then took place at 30° C. by addition of 100 μl of 16.6 μM CuSO4 solution to 160 μL of LDL (125 μg protein/ml) and 20 μl of a test compound solution. The formation of dienes, the species under observation, was followed by measuring optical density at 234 nm in the samples treated with the compounds but in the presence or absence of copper. Optical density at 234 nm was measured every 10 minutes for 8 hours in a thermostated spectrophotometer (Tecan Ultra 380). The compounds were considered to have antioxidant activity when they induced a longer lag phase and reduced the rate of oxidation and the amount of dienes formed in comparison with the control sample.

[2] = target: T1, human PPARα (Homo sapiens, UniProt Q07869); assay: PPARα/Gal4 transactivation system; assay type: cell-based; conditions: for maximum induction factor: at the 10 or 1 μm concentrations
T1 construct: expressed in transfected cells; host or cells: RK13 or COS-7
T1 sequence (Q07869 239-466 limits assumed): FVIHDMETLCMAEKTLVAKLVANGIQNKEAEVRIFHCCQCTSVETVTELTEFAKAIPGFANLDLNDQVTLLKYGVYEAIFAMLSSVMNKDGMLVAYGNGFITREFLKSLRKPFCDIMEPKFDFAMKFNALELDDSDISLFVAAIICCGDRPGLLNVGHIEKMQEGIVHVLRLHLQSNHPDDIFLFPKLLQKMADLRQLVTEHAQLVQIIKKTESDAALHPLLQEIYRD
Method: PPAR activation was tested in vitro in RK13 or COS-7 fibroblast cell lines by measuring the transcriptional activity of chimeras composed of the DNA binding domain of the yeast Gal4 transcription factor and the ligand binding domain of the different PPARs. These latter results were then confirmed in cell lines according to the following protocols.
Culture protocols: RK13 were from ECACC (Porton Down, UK) and were grown in DMEM medium supplemented with 10% (V/V) fetal calf serum, 100 U/ml penicillin (Gibco, Paisley, UK) and 2 mM L-glutamine (Gibco, Paisley, UK). COS-7 cells were from ATCC and were grown in DMEM medium supplemented with 10% (V/V) fetal calf serum, 1% penicillin/streptomycine (Biochrom, AG), 1% of amino acids (Gibco) and 1% sodium pyruvate (Gibco).
The culture medium was changed every two days. Cells were kept at 37° C. in a humidified 95% air/5% CO2 atmosphere.
Description of plasmids used for transfection: The plasmids Gal4(RE)_TkpGL3, pGal4-hPPARα, pGal4-hPPARγ, pGal4-hPPARδ and pGal4-φ have been described in the literature (Raspe E et al., 1999). The pGal4-hPPARα, pGal4-hPPARγ and pGal4-hPPARδ constructs were obtained by cloning into the pGal4-φ vector PCR-amplified DNA fragments corresponding to the DEF domains of the human PPARs nuclear receptors.
Transfection of RK13: RK13 cells were seeded in 24-well culture dishes at 5×10^4 cells/well and transfected for 2 hours with the reporter plasmid Gal4(RE)_TkpGL3 (50 ng/well), the expression vectors pGal4-φ, pGal4-hPPARα, pGal4-hPPARγ and pGal-hPPARδ (100 ng/well) and the transfection efficiency control vector pRL-CMV (1 ng/well) according to the previously described protocol (Raspe E, Madsen L, Lefebvre A M, Leitersdorf I, Gelman L, Peinado-Onsurbe J, Dallongeville J, Fruchart J C, Berge R and Staels B, 1999), then incubated for 36 hours with the test compounds. RK13 cells were incubated with the different compounds at concentrations of 10, 30 and 100 μM or 1, 10 and 100 μM for 24 hours. At the end of the experiment, the cells were lysed (Gibco, Paisley, UK) and luciferase activity was determined with a Dual-Luciferase™ Reporter Assay System kit (Promega, Madison, Wis., USA) according to the supplier's instructions. The protein content of the cell extracts was then measured with the Bio-Rad Protein Assay (Bio-Rad, Munich, Germany) as directed by the supplier.
Transfection of COS7: Cells in suspension are transfected, in the presence of 10% (V/V) fetal calf serum, with 150 ng of DNA per well with a pGal4-PPAR/Gal4(RE)_TkpGL3 ratio of 1/10. Cells are then seeded in 96 well plates (4×10^4 cells/well) and incubated for 24 hours at 37° C. Activation with compounds is performed on 24 hours at 37° C. in culture medium without serum. At the end of the activation period, cells are lysed and luciferase activity is determined, using the Steady Glow Luciferase Kit (Promega), according to the supplier's instructions.

[3] = test system: hApoE2 Knock-in transgenic mice; assay: Effects on triglycerides and cholesterol metabolism in vivo; design: species or system mouse
Method: Treatment of animals: hApoE2 knock-in transgenic mice were kept on a 12-hour light/dark cycle at a constant temperature of 20±3° C. After a 1 week acclimation, mice were separated in groups of 6 animals selected such that the distribution of their body weight and plasmatic lipid levels determined before the experiment were uniform. The test compounds were suspended in carboxymethylcellulose and administered by intragastric gavage at the indicated doses, once a day for 7 or 8 days. Animals had access to food and water ad libitum. At the end of the experiment the animals were weighed and sacrificed under anesthesia. Blood was collected on EDTA. Plasma was prepared by centrifugation at 3000 rpm for 20 minutes. Organs were harvested, frozen in liquid nitrogen and stored at −80° C. for subsequent analysis.
Measurement of serum lipids: Serum lipid concentrations (total cholesterol and triglycerides) were determined by a colorimetric assay (Boehringer, Mannheim, Germany) according to the supplier's instructions.

[4] = test system: Human normal primary fibroblasts; assay: Antioxidant properties on cell cultures (carboxy-H2DCFDA fluorescence, AAPH stress), fibroblasts; assay type: cell-based; conditions: compounds at 25 μM for 24 h, AAPH 750 μM
Method: (§1) The reduction in the intensity of the emitted fluorescence signal was determined in cells treated with the compounds in the following manner.
(§2) Prior to stress the cells with an oxidative agent such as AAPH (CAS number 2997-92-4), cells are incubated with compounds of interest at 25 μM for 24 h. Then the culture medium is discarded and cells are rinsed two times with PBS. Cells are then incubated 30 min at 37° C. with a cell-permeant indicator for reactive oxygen species that is nonfluorescent until the acetate groups are removed by intracellular esterases and oxidation occurs within the cell 5-(and-6)-carboxy-2′,7′-dichlorodihydrofluorescein diacetate (carboxy-H2DCFDA). The probes are prepared in PBS and incubated at the final concentration of 25 μM. After the incubation with the probe, cells are rinsed and incubated another 30 min with the oxidative solution containing AAPH at 750 μM in culture medium without phenol red and serum.
(§3) The fluorescence is then measured with a fluorimeter with the following wavelength, […].
(§4) Two different cell types have been tested with the inventive compounds. Human normal primary fibroblasts and HaCat cells which are a human keratinocyte cell line.

[5] = test system: HaCat cells; assay: Antioxidant properties on cell cultures (carboxy-H2DCFDA fluorescence, AAPH stress), keratinocytes; assay type: cell-based, human; conditions: compounds at 25 μM for 24 h, AAPH 750 μM
Method: as §1, §2, §3, §4

[6] = FIG. 1-9, copper alone 80 minutes
[7] = FIG. 1-12, copper alone 120 minutes

With `Cc1cc(-c2cc(=O)c3ccc(Cl)cc3o2)cc(C)c1OC(C)(C)C(=O)O` [Compound 35, 2-(3,5-dimethyl-4-carboxydimethylmethyloxyphenyl)-7-chloro-4H-1-benzopyran-4-one] the “lag phase of conjugated diene formation” value [1, 6] was 149 min and the “rate of conjugated diene formation” value ([1]; FIG. 1-10, copper alone 1.9) was 1.5 nmol/min/mg of LDL.
With `COc1cc(/C=C/C(=O)c2ccc(Cl)cc2O)cc(OC)c1OC(C)(C)C(=O)O` [Compound 6, 1-[2-hydroxy-4-chlorophenyl]-3-[3,5-dimethoxy-4-carboxydimethylmethyloxyphenyl]prop-2-en-1-one] the “antioxidant properties on LDL oxidation by copper (in words)” value (shortened to “antioxidant properties on LDL oxidation”) [1] was “antioxidant properties”.
With `COc1cc(/C=C/C(=O)c2ccccc2O)cc(OC)c1OC(C)(C)C(=O)O` [Compound 5, 1-[2-hydroxyphenyl]-3-[3,5-dimethoxy-4-carboxydimethylmethyloxyphenyl]prop-2-en-1-one] the “antioxidant properties on LDL oxidation” value [1] was “antioxidant properties”.
For `Cc1cc(/C=C/C(=O)c2ccc(Cl)cc2O)cc(C)c1OC(C)(C)C(=O)O` [Compound 7, 1-[2-hydroxy-4-chlorophenyl]-3-[3,5-dimethyl-4-carboxydimethylmethyloxyphenyl]prop-2-en-1-one], the “antioxidant properties on LDL oxidation” value [1] was “antioxidant properties”, the “induction factor (luminescent signal relative to untreated cells)” value ([2]; 30 μM) was 50 and the “cholesterol in lipoparticle subfraction (exclusion chromatography)” value ([3]; gavage 200 mg/kg for 7 days) was “decreased”. For the same molecule, the “plasma concentration of cholesterol” value ([3]; gavage 200 mg/kg for 7 days) was “decrease”, the “plasma concentration of triglycerides” value ([3]; gavage 200 mg/kg for 7 days) was “decrease” and the “triglycerides in lipoparticle subfraction (exclusion chromatography)” value ([3]; gavage 200 mg/kg for 7 days) was “decreased”.
`Cc1cc(/C=C/C(=O)c2ccc(Br)cc2O)cc(C)c1OC(C)(C)C(=O)O` [Compound 25, 1-[2-hydroxy-4-bromophenyl]-3-[3,5-dimethyl-4-carboxydimethylmethyloxyphenyl]prop-2-en-1-one] was tested, and the “lag phase of conjugated diene formation” value ([1]; FIG. 1-7, copper alone 82 minutes) was 120 min and the “maximum amount of conjugated dienes formed” value (shortened to “maximum amount”) ([1]; FIG. 1-8, copper alone 393) was 378 nmol per mg of LDL.
`Cc1cc(/C=C/C(=O)c2ccccc2O)cc(C)c1OC(C)(C)C(=O)O` [Compound 11, 1-[2-hydroxyphenyl]-3-[3,5-dimethyl-4-carboxydimethylmethyloxyphenyl]prop-2-en-1-one] was tested, and the “induction factor (luminescent signal relative to untreated cells)” value ([2]; 100 μM) was 10.
`COc1cc(Cl)ccc1C(=O)/C=C/c1cc(C)c(OC(C)(C)C(=O)O)c(C)c1` [Compound 37, 1-[2-methyloxy-4-chlorophenyl]-3-[3,5-dimethyl-4-carboxydimethylmethyloxyphenyl]prop-2-en-1-one] was tested, and the “lag phase of conjugated diene formation” value [1, 7] was 196 min, the “rate of conjugated diene formation” value ([1]; FIG. 1-13, copper alone 1.8) was 1.49 nmol/min/mg of LDL and the “maximum amount” value ([1]; FIG. 1-14, copper alone 372) was 338 nmol per mg of LDL. The maximum induction factor [2] was 27.
For `CCCCCCOc1ccccc1C(=O)/C=C/c1cc(C)c(OC(C)(C)C(=O)O)c(C)c1` [Compound 82, 1-[2-hexyloxyphenyl]-3-[3,5-dimethyl-4-carboxydimethylmethyloxyphenyl]prop-2-en-1-one], the plasma cholesterol ([3]; 50 mg/kg/day for 7 or 8 days, FIGS. 4-13, 4-15, 4-17, 4-19) was “decrease” and the plasma triglycerides ([3]; 50 mg/kg/day for 7 or 8 days, FIGS. 4-14, 4-16, 4-18, 4-20) was “decrease”.
`CCCCCCCc1ccc(C(=O)/C=C/c2cc(C)c(OC(C)(C)C(=O)OC(C)(C)C)c(C)c2)cc1` [Compound 38, 1-[4-heptylphenyl]-3-[3,5-dimethyl-4-tertbutyloxycarbonyldimethylmethyloxyphenyl]prop-2-en-1-one] was tested, and the “lag phase of conjugated diene formation” value [1, 7] was 284 min, the “rate of conjugated diene formation” value ([1]; FIG. 1-13, copper alone 1.8) was 0.71 nmol/min/mg of LDL and the “maximum amount” value ([1]; FIG. 1-14, copper alone 372) was 244 nmol per mg of LDL. For the same molecule, the maximum induction factor [2] was 22.
For `Cc1c(C)c2c(c(C)c1O)CCC(C)(C(=O)O)O2` (stereo not shown) [Trolox, reference compound], the “% of oxidative reduction versus control cells” value [4] was 60% and the “% of oxidative reduction versus control cells” value [5] was 46%.
`COc1ccccc1C(=O)/C=C/c1cc(C)c(OC(C)(C)C(=O)O)c(C)c1` [Compound 31, 1-[2-methoxyphenyl]-3-[3,5-dimethyl-4-carboxydimethylmethyloxyphenyl]prop-2-en-1-one] was tested, and the “lag phase of conjugated diene formation” value [1, 6] was 139 min, the “rate of conjugated diene formation” value ([1]; FIG. 1-10, copper alone 1.9) was 1.6 nmol/min/mg of LDL and the “induction factor (luminescent signal relative to untreated cells)” value ([2]; 10 μM) was 15.5.
